Common to all, as to experiment: relative viability (nuclei count vs DMSO), 5 days (fraction); higher = more cells survive
Compound in the assay “Bleomycin + Palbociclib”: CC1=C(N=C(N=C1N)[C@H](CC(=O)N)NC[C@@H](C(=O)N)N)C(=O)N[C@@H]([C@H](C2=CN=CN2)OC3C(C(C(C(O3)CO)O)O)OC4C(C(C(C(O4)CO)O)OC(=O)N)O)C(=O)N[C@H](C)[C@H]([C@H](C)C(=O)N[C@@H]([C@@H](C)O)C(=O)NCCC5=NC(=CS5)C6=NC(=CS6)C(=O)NCCC[S+](C)C)O [Bleomycin] + CC(=O)c1c(C)c2cnc(Nc3ccc(N4CCNCC4)cn3)nc2n(C2CCCC2)c1=O [Palbociclib] (partner 0.5 µM)
To be noted: main component drawn. In a few lines:
(§1)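 Dosing by pin tool came one day after lung cancer cell lines were seeded in 1536-well plates, using either one drug or a fixed anchor-drug dose plus five library-drug doses (not always all listed) in √10 steps. After 5 days, nuclei were counted on 4× images. Relative viability is treated-well nuclei count divided by vehicle-well nuclei count, and values are medians of duplicate plates.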

Compound in the assay “Etoposide + Palbociclib”: COc1cc([C@@H]2c3cc4c(cc3[C@@H](O[C@@H]3O[C@@H]5CO[C@@H](C)O[C@H]5[C@H](O)[C@H]3O)[C@H]3COC(=O)[C@H]23)OCO4)cc(OC)c1O [Etoposide] + CC(=O)c1c(C)c2cnc(Nc3ccc(N4CCNCC4)cn3)nc2n(C2CCCC2)c1=O [Palbociclib] (partner 0.5 µM)
Summed up: as §1

Compound in the assay “Etoposide + Pictilisib”: COc1cc([C@@H]2c3cc4c(cc3[C@@H](O[C@@H]3O[C@@H]5CO[C@@H](C)O[C@H]5[C@H](O)[C@H]3O)[C@H]3COC(=O)[C@H]23)OCO4)cc(OC)c1O [Etoposide] + CS(=O)(=O)N1CCN(Cc2cc3nc(-c4cccc5[nH]ncc45)nc(N4CCOCC4)c3s2)CC1 [Pictilisib] (partner 1 µM)
Summed up: as §1

Compound in the assay “Etoposide + Olaparib”: COc1cc([C@@H]2c3cc4c(cc3[C@@H](O[C@@H]3O[C@@H]5CO[C@@H](C)O[C@H]5[C@H](O)[C@H]3O)[C@H]3COC(=O)[C@H]23)OCO4)cc(OC)c1O [Etoposide] + O=C(c1cc(Cc2n[nH]c(=O)c3ccccc23)ccc1F)N1CCN(C(=O)C2CC2)CC1 [Olaparib] (partner 8 µM)
Summed up:
as §1

With SK-MES-1, the relative viability is 0.313 with Bleomycin + Palbociclib (first compound 0.01 µM); 0.306 in the assay with Bleomycin + Palbociclib (first compound 0.03162 µM); 0.329 with Bleomycin + Palbociclib (first compound 0.1 µM); 0.254 in the assay with Bleomycin + Palbociclib (first compound 0.3162 µM); 0.204 in the assay with Bleomycin + Palbociclib (first compound 1 µM); 0.338 with Etoposide + Palbociclib (first compound 0.01 µM). For the same cell line, the relative viability was found to be 0.31 in the assay with Etoposide + Palbociclib (first compound 0.03162 µM); 0.315 with Etoposide + Palbociclib (first compound 0.1 µM); 0.262 with Etoposide + Palbociclib (first compound 0.3162 µM); 0.239 in the assay with Etoposide + Palbociclib (first compound 1 µM); 0.361 in the assay with Etoposide + Pictilisib (first compound 0.01 µM); 0.336 with Etoposide + Pictilisib (first compound 0.03162 µM). In addition, the relative viability with Etoposide + Pictilisib (first compound 0.1 µM) was 0.301; in the assay with Etoposide + Pictilisib (first compound 0.3162 µM), 0.242; in the assay with Etoposide + Pictilisib (first compound 1 µM) it was 0.167; in the assay with Etoposide + Olaparib (first compound 0.01 µM), 0.697; in the assay with Etoposide + Olaparib (first compound 0.03162 µM) it was 0.785; with Etoposide + Olaparib (first compound 0.1 µM), 0.56. In addition, the figures for the relative viability with Etoposide + Olaparib (first compound 0.3162 µM) and with Etoposide + Olaparib (first compound 1 µM) were 0.257 and 0.19, respectively.
With SW 1573, the relative viability in the assay with Bleomycin + Palbociclib (first compound 0.01 µM) was found to be 0.277; in the assay with Bleomycin + Palbociclib (first compound 0.03162 µM), 0.3; in the assay with Bleomycin + Palbociclib (first compound 0.1 µM), 0.265; with Bleomycin + Palbociclib (first compound 0.3162 µM), 0.144; with Bleomycin + Palbociclib (first compound 1 µM), 0.167; with Etoposide + Palbociclib (first compound 0.01 µM) it was 0.363. Moreover, the relative viability turned out to be 0.349 with Etoposide + Palbociclib (first compound 0.03162 µM); 0.288 with Etoposide + Palbociclib (first compound 0.1 µM); 0.16 with Etoposide + Palbociclib (first compound 0.3162 µM); 0.109 with Etoposide + Palbociclib (first compound 1 µM); 0.451 with Etoposide + Pictilisib (first compound 0.01 µM); 0.475 with Etoposide + Pictilisib (first compound 0.03162 µM). Also, the relative viability with Etoposide + Pictilisib (first compound 0.1 µM) stood at 0.338; with Etoposide + Pictilisib (first compound 0.3162 µM), 0.197; in the assay with Etoposide + Pictilisib (first compound 1 µM) it was 0.117; with Etoposide + Olaparib (first compound 0.01 µM) it was 0.45; in the assay with Etoposide + Olaparib (first compound 0.03162 µM) it was 0.397; with Etoposide + Olaparib (first compound 0.1 µM) it was 0.395. Further, the relative viability stood at 0.16 with Etoposide + Olaparib (first compound 0.3162 µM) and 0.0987 in the assay with Etoposide + Olaparib (first compound 1 µM).
